Data: patent US20070026402A1, “Genetic marker of response to atypical antipsychotics and antidepressants methods for use thereof” (priority 2003, published 2007)
Entries after “also recorded” stand apart in the source; their conditions may differ. Values belong to the compound of their own block, whether it stands above or below them.

How the values were obtained:
[1] = test system: Serum prolactin
[2] = test system: PTSD; details: compared to 32% with placebo; cited from earlier work
[3] = test system: PTSD patients; test: General Health Questionnaire-28 (GHQ) outcome of paroxetine treatment in PTSD; type: in vivo, human; details: for GHQ total score, baseline vs treatment: 8 weeks
Excerpt: Sixty-five unrelated male Caucasian patients with the diagnosis of PTSD were recruited for study. All subjects were Vietnam combat veterans who had served in the Australian armed forces. None were being treated with psychotropic medication. […] confirmed by all patients exceeding the clinical cut-off score of 94 on the Mississippi Scale for combat-related posttraumatic stress disorder (Zatzick et al., 1997). The validity and reliability of the Mississippi scale ate well established in veterans (Keane et al., 1988). Patients then underwent clinical history taking by a psychiatrist or by a clinical nurse (EP). Demographic data and ethnic background were also obtained. […] The General Health Questionnaire-28 (GHQ) was administered at baseline (0-7 days on paroxetine) and at the end of treatment (8 weeks after commencement on paroxetine). This questionnaire measures four psychopathological factors particularly relevant to PTSD and its comorbid psychiatric conditions: somatic concerns (GHQ1), anxiety/insomnia (GHQ2), social dysfunction (GHQ3) and depression (GHQ4). The GHQ has been widely validated internationally as a means of detecting psychiatric […] sensitive to change (Ormel et al., 1989). The GHQ has utility as a follow-up measure of veteran mental health following exposure to combat (Deahl et al., 1994) and is sensitive to changes in combat-related PTSD symptoms (Ward, 1997). Information coded from the interviews, GHQ and genotyping results were entered into a computer database. Nominal data were analyzed by Yates corrected X^2 test and continuous data, with repeated measures, were analyzed by paired t-test or by analysis of variance. P values≦0.05 were considered statistically significant.

[4] = test system: PTSD patients; test: Discontinuation and adverse events during paroxetine treatment in PTSD; type: in vivo, human; details: for Subjects with adverse events relating to anxiety, insomnia, headache or tremor / Subjects with erectile dysfunction, decreased libido or delayed ejaculation: group that discontinued
Description: Sixty-five unrelated male Caucasian patients with the diagnosis of PTSD were recruited for study. All subjects were Vietnam combat veterans who had served in the Australian armed forces. None were being treated with psychotropic medication.
After initial assessment, patients were medically examined and then were started on 20 mg/day of paroxetine for the first two weeks followed by a 40 mg/day dose for the remaining six weeks.
Patient assessments were conducted blind to their DRD2 allelic status. In addition to their standard treatment, patients were monitored twice for adverse events. Drug compliance was checked by pill count. All participants provided written informed consent and were able to terminate treatment without prejudice. However, those terminating participation were asked to provide reasons for their withdrawal. Institutional ethics approval was obtained from the Greenslopes Private Hospital.

Number of patients exceeding hyperprolactinemia cut-off levels ([1]; Clozapine and Olanzapine patients combined): 7
Hyperprolactinemic patients as share of the sample ([1]; Clozapine and Olanzapine patients combined, sample of 144): 5%
Prolactin levels in A1+ compared to A1− allelic patients ([1]; P=0.04): more than two fold higher
Structure (SMILES): CN1CCN(C2=Nc3cc(Cl)ccc3Nc3ccccc32)CC1 [Clozapine]

Structure (SMILES): CN[C@H]1CC[C@@H](c2ccc(Cl)c(Cl)c2)c2ccccc21 [sertraline]
Responder rate [2]: 53%

Structure (SMILES): Fc1ccc([C@@H]2CCNC[C@H]2COc2ccc3c(c2)OCO3)cc1 [paroxetine]
GHQ3 (social dysfunction) subscale score over the course of treatment ([3]; A1+ allelic subjects): significant improvement
GHQ3 (social dysfunction) subscale score over the course of treatment ([3]; A1− allelic subjects): no such improvement
GHQ total score, baseline vs treatment ([3]; A1− patients): no significant improvement; also recorded: did not
GHQ total score, baseline vs treatment ([3]; total 45 patients): significant improvement
GHQ1 (somatic concerns) subscale score over the course of treatment ([3]; total patient group): not significantly reduced
GHQ2 (anxiety/insomnia) subscale score over the course of treatment ([3]; total patient group): significantly reduced
GHQ3 (social dysfunction) subscale score over the course of treatment ([3]; total patient group): significant improvement
GHQ4 (depression) subscale score during treatment ([3]; total patient group): significant improvement
Number of patients who discontinued treatment ([4]; A1+ (of 26)): 4
Subjects with adverse events relating to anxiety, insomnia, headache or tremor ([4]; A1+): 2
Subjects with erectile dysfunction, decreased libido or delayed ejaculation ([4]; A1+): 2
Number of patients who discontinued treatment ([4]; A1− (of 39)): 16
Subjects with adverse events relating to anxiety, insomnia, headache or tremor ([4]; A1−): 11
Subjects with erectile dysfunction, decreased libido or delayed ejaculation ([4]; A1−): 5
Number of patients who discontinued treatment ([4]; of the 65 patients who entered the study): 20
